Some targets named below: HLA-DR DRB1*1101 (DR11) (Homo sapiens, UniProt P01903+P01911, A100R/A169T/A87E/I96F/K41T/L162R/M171V/P40S/Q125H/Q178H/Q39Y/Q99D/R42S/S66Y/T262R/V115G/W38E); HLA-DR DRB1*1302 (DR13) (Homo sapiens, UniProt P01903+P01911, A100E/A169T/K41T/L162R/M171V/P40S/Q125H/Q178H/Q39Y/Q99D/R42S/S66N/T262R/V115G/W38E/Y61H); HLA-DR DRB1*1501 (DR15) (Homo sapiens, UniProt P01903+P01911); HLA-DR DRB4*0101 (DR53) (Homo sapiens, UniProt P01903+P13762, G164S); HLA-DR DRB5*0101 (DR51) (Homo sapiens, UniProt P01903+Q30154); HLA-DR DRB1*0301 (DR3) (Homo sapiens, UniProt P01903+P01911, A100K/A102G/A103R/A169T/F55Y/I96L/K41T/L162R/M171V/P40S/Q125H/Q178H/Q39Y/R42S/S66N/T106N/T262R/W38E/Y61H); HLA-DR DRB1*0101 (DR1) (Homo sapiens, UniProt P01903+P01911, A100R/D57E/F55L/F60I/F76Y/I96L/L162R/M171V/P40L/Q125E/R42F/V115G/Y59C); HLA-DR DRB1*0701 (DR7) (Homo sapiens, UniProt P01903+P01911, A100R/A102G/A103Q/D57E/D86V/E43K/F76Y/K127E/L162R/M171V/P40G/Q125H/Q99D/R33Q/R42Y/R54Q/S133A/S66F/T210M/V115G/Y107V/Y59L/Y89S); HLA-DR DRB1*0401 (DR4) (Homo sapiens, UniProt P01903+P01911, A100K/A169T/F76Y/I96L/K127E/L162R/M171V/N62H/P40V/Q125Y/R42H/S133A/S149N/S66Y/V115G/V209L/W38E).

What all share (test): biochemical
What all share (type): binding

pIC50: −log10 of the molar value. Like-named read-outs stand apart in the source and are kept apart here. No end group written: not given here.

This passage reports IC50 results from patent US20060079453A1, “Hla binding peptides and their uses” (priority 2002, published 2006).

HLA-DR DRB1*0301 (DR3), sequence (P01903 26-254 limits assumed, other chains not shown): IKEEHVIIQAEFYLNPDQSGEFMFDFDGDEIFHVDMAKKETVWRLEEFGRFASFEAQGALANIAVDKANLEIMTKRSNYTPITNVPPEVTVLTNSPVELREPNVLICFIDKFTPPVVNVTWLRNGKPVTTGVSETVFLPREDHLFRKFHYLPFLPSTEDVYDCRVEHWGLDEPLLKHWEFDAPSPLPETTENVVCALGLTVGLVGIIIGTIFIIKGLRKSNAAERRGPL
HLA-DR DRB1*1101 (DR11), sequence (P01903 26-254 limits assumed, other chains not shown): as above
HLA-DR DRB1*1302 (DR13), sequence (P01903 26-254 limits assumed, other chains not shown): as above

Consider RGGMVFELANSIVLP, for which the pIC50 at HLA-DR DRB1*1101 (DR11) (read-out: DRB1 *1101) was less than 4.30; on HLA-DR DRB1*1302 (DR13) (read-out: DRBI *1302) it was 8.36; at HLA-DR DRB1*1501 (DR15) (read-out: DRBI *1501), 7.03; on HLA-DR DRB4*0101 (DR53) (read-out: DRB4 *0101) it was 6.39; on HLA-DR DRB5*0101 (DR51) (read-out: DRB5 *0101), 6.38.
With EEDIEIIFIQEEEY, the pIC50 at HLA-DR DRB1*1101 (DR11) (read-out: DRB1 *1101) was less than 4.69; on HLA-DR DRB5*0101 (DR51) (read-out: DRB5 *0101) it was 4.34.
Consider TGYKVLVLNPSV, for which the pIC50 on HLA-DR DRB1*1101 (DR11) (read-out: DRB1 *1101) is 7.59; at HLA-DR DRB1*1302 (DR13) (read-out: DRBI *1302) it was 7.68; on HLA-DR DRB5*0101 (DR51) (read-out: DRB5 *0101), less than 4.94.
In the case of EFAFKDLFVVYRDSI, the pIC50 is 5.02 at HLA-DR DRB1*1101 (DR11) (read-out: DRB1 *1101), 5.00 at HLA-DR DRB1*1302 (DR13) (read-out: DRBI *1302), 5.27 on HLA-DR DRB1*1501 (DR15) (read-out: DRBI *1501) and 5.22 at HLA-DR DRB5*0101 (DR51) (read-out: DRB5 *0101).
Turning to DFVFADLRIVYRDGN, the pIC50 at HLA-DR DRB1*1101 (DR11) (read-out: DRB1 *1101) was 5.16; at HLA-DR DRB4*0101 (DR53) (read-out: DRB4 *0101), 5.17; at HLA-DR DRB5*0101 (DR51) (read-out: DRB5 *0101), 5.07.
For the compound VGGVYLLPRRGPRLGV, the pIC50 on HLA-DR DRB1*0301 (DR3) (read-out: DRB1 *0301) is 3.63.
As to LWWVNNESLPVSPRL, on HLA-DR DRB1*0301 (DR3), the pIC50 was 6.50.
Turning to LQDVVLELTPQTEID, the pIC50 was 5.83 against HLA-DR DRB1*0101 (DR1) (DRB1 *0101); 5.25 on HLA-DR DRB1*0701 (DR7) (DRB1 *0701); less than 4.50 against HLA-DR DRB1*1101 (DR11) (DRB1 *1101); 5.94 on HLA-DR DRB1*1302 (DR13) (DRBI *1302); less than 4.48 on HLA-DR DRB1*1501 (DR15) (DRBI *1501); 5.95 against HLA-DR DRB4*0101 (DR53) (DRB4 *0101). Further, on HLA-DR DRB5*0101 (DR51) (DRB5 *0101), the pIC50 was less than 4.50.
Regarding YDFVFADLRIVYRDG, the pIC50 was 5.18 on HLA-DR DRB1*1101 (DR11) (read-out: DRB1 *1101), 5.09 at HLA-DR DRB1*1302 (DR13) (read-out: DRBI *1302) and 4.59 at HLA-DR DRB1*1501 (DR15) (read-out: DRBI *1501).
YAR(15)ASQTTLKAKT: the pIC50 at HLA-DR DRB1*0101 (DR1) (read-out: DRB1 *0101) was 8.82; at HLA-DR DRB1*0401 (DR4) (read-out: DRB1 *0401) it was 9.34; at HLA-DR DRB1*0701 (DR7) (read-out: DRB1 *0701) it was 5.92; on HLA-DR DRB1*1101 (DR11) (read-out: DRB1 *1101), 8.41; on HLA-DR DRB5*0101 (DR51) (read-out: DRB5 *0101) it was 8.44.
On to LSHFLKEKGGLEGLI, for which the pIC50 on HLA-DR DRB1*1101 (DR11) (read-out: DRB1 *1101) is 5.02; at HLA-DR DRB1*1302 (DR13) (read-out: DRBI *1302), less than 4.92; at HLA-DR DRB1*1501 (DR15) (read-out: DRBI *1501), less than 4.40; on HLA-DR DRB4*0101 (DR53) (read-out: DRB4 *0101), 4.73; at HLA-DR DRB5*0101 (DR51) (read-out: DRB5 *0101) it was less than 4.69.
Turning to VASLLTTAEVVVTEI, the pIC50 on HLA-DR DRB1*1101 (DR11) (read-out: DRB1 *1101) was less than 4.73; on HLA-DR DRB1*1302 (DR13) (read-out: DRBI *1302) it was less than 4.99; on HLA-DR DRB1*1501 (DR15) (read-out: DRBI *1501) it was less than 4.29; on HLA-DR DRB4*0101 (DR53) (read-out: DRB4 *0101) it was less than 4.58; on HLA-DR DRB5*0101 (DR51) (read-out: DRB5 *0101), less than 3.92.
YIVMSDWTGGA showed a pIC50 against HLA-DR DRB1*0301 (DR3) of 4.87.
MLDLQPEITDLYCYE: the pIC50 on HLA-DR DRB1*1101 (DR11) (read-out: DRB1 *1101) was less than 4.82; at HLA-DR DRB1*1302 (DR13) (read-out: DRBI *1302), less than 4.92; at HLA-DR DRB1*1501 (DR15) (read-out: DRBI *1501), less than 4.32; on HLA-DR DRB4*0101 (DR53) (read-out: DRB4 *0101), 7.70; at HLA-DR DRB5*0101 (DR51) (read-out: DRB5 *0101), less than 4.82.
Regarding LGFFPDHQLDPAFRANT, at HLA-DR DRB1*0301 (DR3) (read-out: DRB1 *0301), the pIC50 was 4.92.
As for `CC[C@H](C)[C@H](NC(=O)[C@H](C)NC(=O)[C@H](CCC(N)=O)NC(=O)[C@H](CCCNC(=N)N)NC(=O)[C@H](CC(C)C)NC(=O)[C@H](C)NC(=O)[C@@H](NC(=O)[C@H](Cc1c[nH]cn1)NC(=O)[C@H](Cc1c[nH]cn1)NC(=O)[C@@H]1CCCN1)[C@@H](C)O)C(=O)N[C@@H](CC(C)C)C(=O)N[C@@H](CO)C(=O)N[C@@H](Cc1c[nH]c2ccccc12)C(=O)NCC(=O)N[C@@H](CCC(=O)O)C(=O)N[C@@H](CC(C)C)C(=O)N[C@@H](CCSC)C(=O)N[C@H](C(=O)N[C@@H](CC(C)C)C(=O)N[C@@H](C)C(=O)O)[C@@H](C)O`, the pIC50 on HLA-DR DRB1*0701 (DR7) was 4.84; against HLA-DR DRB1*1101 (DR11), 5.51; at HLA-DR DRB1*1501 (DR15), 8.28; at HLA-DR DRB4*0101 (DR53), 7.32.
Consider AAAKAAAAAAYAA, for which the figures for the pIC50 against HLA-DR DRB1*0301 (DR3) and against HLA-DR DRB1*0401 (DR4) (DRB1 *0401) were less than 3.05 and 6.64, respectively.
Turning to TVVYREGNPFGICKL, the pIC50 on HLA-DR DRB1*1101 (DR11) (read-out: DRB1 *1101) is less than 4.74; on HLA-DR DRB1*1302 (DR13) (read-out: DRBI *1302), less than 4.88; on HLA-DR DRB5*0101 (DR51) (read-out: DRB5 *0101), 4.31.
Turning to KVSCKGSGYTFTAYQMH, the figures for the pIC50 against HLA-DR DRB1*0101 (DR1) (DRB1 *0101), at HLA-DR DRB1*0701 (DR7) (DRB1 *0701) and against HLA-DR DRB1*1101 (DR11) (DRB1 *1101) were 5.30, 4.30 and less than 3.70, respectively.
For VYQLDIQSTKEDLRV, the pIC50 was 5.13 at HLA-DR DRB1*1101 (DR11) (read-out: DRB1 *1101), 6.15 at HLA-DR DRB1*1302 (DR13) (read-out: DRBI *1302), 6.65 on HLA-DR DRB4*0101 (DR53) (read-out: DRB4 *0101) and 5.06 on HLA-DR DRB5*0101 (DR51) (read-out: DRB5 *0101).
As to Ac-ASQKRPSQRHGSKYLATAST, on HLA-DR DRB1*0301 (DR3), the pIC50 is less than 3.05.
Turning to EYLILSARDVLAVVS, the pIC50 against HLA-DR DRB1*0401 (DR4) was 6.29; on HLA-DR DRB1*1101 (DR11), 5.16; against HLA-DR DRB1*1501 (DR15) it was 5.63; at HLA-DR DRB4*0101 (DR53) (DRB4 *0101) it was 5.60; against HLA-DR DRB5*0101 (DR51), 5.38.
For SHDLMLLRLSEPAK, the pIC50 at HLA-DR DRB1*0101 (DR1) (read-out: DRB1 *0101) is 7.25; on HLA-DR DRB1*0301 (DR3) (read-out: DRB1 *0301) it was 5.62; at HLA-DR DRB1*0401 (DR4) (read-out: DRB1 *0401), 5.65.
For the compound TEGRCLHYTVDKSKPK, the figures for the pIC50 against HLA-DR DRB1*0401 (DR4) (DRB1 *0401), at HLA-DR DRB1*0701 (DR7) (DRB1 *0701) and against HLA-DR DRB1*1101 (DR11) (DRB1 *1101) were 6.70, less than 3.60 and less than 5.90, respectively.
